This note sets out measurements from patent publication US20110206786A1, “Acai and Iridoid Based Formulations” (priority 2010, published 2011).

Series [1] concerns E. coli PQ37. The series is classed as cell-based. The conditions noted are these: iridoid at 250 ug plus 1.25 ug mL^−1 4NQO; blank = 1. How it is done: The SOS-chromotest in E. coli PQ37 was used to determine the potential for iridoids in noni fruit from French Polynesia to prevent primary DNA damage. E coli PQ37 was incubated at 37° C. in the presence of deacetylasperulosidic acid and asperulosidic acid at a concentration of 250 ug in a 96-well plate. Replicate samples were evaluated. […] Following incubation with the samples, 5-bromo-4-chloro-3-indolyl-β-D-galactopyranoside was added to the wells to detect β-galactosidase enzyme activity, which is induced during SOS repair of damaged DNA. The samples were again incubated for 90 minutes and the absorbances of the samples, blank and positive control were measured at 620 nm with a microplate reader. The β-galactosidase enzyme activity induction factor of each material was calculated by dividing the absorbance of the sample at 620 nm by that of the blank, while also correcting for cell viability.

The test system of series [2] is E. coli PQ37. As to the kind of experiment: Anti-genotoxicity test (SOS-chromotest with 4NQO). The series is classed as cell-based. The conditions noted are these: 250 μg mL^−1 iridoid plus 1.25 μg 4NQO, compared with vehicle blank. How it is done:
The primary DNA damage test was performed again, similar to the method described above. […] Induction factors were calculated in the same manner as described above.

Series [3] can be described thus: Thermal stability of DAA under pasteurization conditions (HPLC). It is filed as physicochemical. The conditions noted are these: 90° C. at pH 3.3 for one minute. How it is done:
Tahitian noni fruit puree as used in this example is the mashed whole fruit, excluding seeds and pericarp. The fruits were originally collected from the Tahitian Islands. One gram of the puree was diluted with 5 mL of H2O-MeOH (1:1) and mixed thoroughly. The solution was then filtered through a nylon microfilter (0.45-μm pore size); the solution was collected into a 5 mL volumetric flask for HPLC analysis. Four batches of noni puree were analyzed in the experiments. Voucher specimens of the noni fruit puree are deposited in our lab. To test iridoid stability, a DAA solution of 0.5 mg/mL was prepared with MeOH. This solution was heated in a water-bath at 90° C. for 1 min, cooled to room temperature, and analyzed by HPLC.
Noni fruit juice is usually subjected to heat pasteurization during commercial processing. Pasteurization is usually employed in noni industry, i.e., heating up to 87.7° C. for several seconds. In this study, the stability of DAA was conducted. DAA was exposed to 90° C. at pH 3.3 for one minute to determine its thermal stability at acidic conditions.

On to `CC(=O)OCC1=C[C@H](O)[C@@H]2C(C(=O)O)=CO[C@@H](O[C@@H]3O[C@H](CO)[C@@H](O)[C@H](O)[C@H]3O)[C@H]12` [AA, asperulosidic acid], for which, in series [1], the “β-galactosidase enzyme activity induction factor (mean±standard deviation)” value is on record as 1.04±0.01. Besides, the “induction factors of 4NQO plus DAA or AA” value in series [2] is listed as “no statistical difference from that of the vehicle blank”.

With `O=C(O)C1=CO[C@@H](O[C@@H]2O[C@H](CO)[C@@H](O)[C@H](O)[C@H]2O)[C@@H]2C(CO)=C[C@H](O)[C@H]12` [DAA, deacetylasperulosidic acid], in series [1], the “β-galactosidase enzyme activity induction factor (mean±standard deviation)” value is given as 0.98±0.02. Also, the “induction factors of 4NQO plus DAA or AA” value in series [2] is “no statistical difference from that of the vehicle blank”. Besides, in series [3], the “thermal stability (DAA contents before and after heating)” value was “no difference in the DAA contents before and after heating”.
